Assays:
Conditions in all cases: biotinylated peptide 0 to 200 µg.mL, streptavidin-HRP detection
BBI = system: BBI
Description: (§1) The C-terminus was elongated with a GGGS-CONH2 tail to mimic the GGGS-peptide spacer between the random peptide sequence and the phage protein pIII and to block the negative charge of the carboxyl terminus. […] All synthetic peptides were reconstituted in sterile deionised H2O to a concentration of 2 mg/mL. The ability of biotinylated synthetic peptides (from 0 to 200 µg.mL) to bind to the immobilized purified Bowman-Birk inhibitor, soy pulp and soy whey extracts (and BSA as a negative control) was analyzed in solid phase assays. In this case, the biotinylated synthetic peptides were incubated on BBI coated wells (100 µg.mL) and detected using a streptavidin-HRP conjugate (1:500). Binding and absorbance readings are finally carried out using the TMB substrate as described before.

soy pulp = system: soy pulp
Description: as §1

soy whey = system: soy whey
Description: as §1

GAMHLPWHMGTLGGGS-1,2-diaminoethane-biotin [peptide 1]
Dose-dependent binding: binding to BBI (BBI) | binding to soy pulp (soy pulp) | binding to soy whey (soy whey)

From patent publication EP2604624A1, “Bowman-Birk protease Inhibitor (BBI) binding peptides, and uses thereof in the separation, detection or purification of BBI” (University College Dublin National University Of Ireland, …, priority 2011, dated 2013)
